Assay results: ChEMBL document CHEMBL3832548, “DailyMed|setid=ba1cca98-f350-4655-88e3-6ef990779fb9 | KETEK - telithromycin tablet, film coated|Physicians Total Care, Inc”

What was measured:
Type in all cases: ADME, organism-based
[1] = The pharmacokinetics of Telithromycin evaluated after administration of single 800-mg doses to healthy adult subjects.; set-up: dose 800 mg, route oral; settings: human, in vivo, dosed compound id 4, dosed compound name TELITHROMYCIN, gender adult male and female, regimen Single dose, tissue Plasma
[2] = The pharmacokinetics of Telithromycin evaluated after administration of multiple 800-mg doses to healthy adult subjects.; set-up: dose 800 mg, route oral; settings: human, in vivo, dosed compound id 4, dosed compound name TELITHROMYCIN, gender adult male and female, regimen Multiple dose, tissue Plasma
[3] = (§1) The pharmacokinetics of Telithromycin evaluated after administration of Ketek to subjects.; settings: human, in vivo; dosed compound id 4, dosed compound name TELITHROMYCIN, route oral, tissue Feces; read-out: Excretion
Homo sapiens = assay: as §1; settings: in vivo, po, dosed compound id 4, dosed compound name TELITHROMYCIN, tissue Urine
[4] = po, 800 mg, read-out: AUC(0-24)

Compound `CC[C@H]1OC(=O)[C@H](C)C(=O)[C@H](C)[C@@H](O[C@@H]2O[C@H](C)C[C@H](N(C)C)[C@H]2O)[C@](C)(OC)C[C@@H](C)C(=O)[C@H](C)[C@H]2N(CCCCn3cnc(-c4cccnc4)c3)C(=O)O[C@]12C` [TELITHROMYCIN] has a Cmax ([1]; po, 800 mg) of 1900 ng/mL, an AUC [1, 4] of 8250 ng·h/mL and a Tmax ([1]; dose 800 mg, route oral) of 1 h. For the same compound, the half-life ([1]; dose 800 mg, route oral) was 7.16 h, the concentration at 24 h ([1]; dose 800 mg, route oral, read-out: C(24h)) was 30 ng/mL and the Cmax ([2]; po, 800 mg) was 2270 ng/mL. For the same compound, the AUC [2, 4] was 12500 ng·h/mL, the Tmax ([2]; dose 800 mg, route oral) was 1 h and the half-life ([2]; dose 800 mg, route oral) was 9.81 h. It also gave a dose excreted [3] of 7% and an Excretion (Homo sapiens) of 13%.
